Source: patent US8080517B2, “Cell-permeable peptide inhibitors of the JNK signal transduction pathway” (Xigen SA, priority 2005, dated 2011)
Where a SMILES comes first, the peptide text is derived from it. [ ]: non-standard residue; d: D form.

What was measured:
[1] = Focal cerebral ischaemia, transient MCAO model, infarct volume; assay type: in vivo, male ICR-CD1 mice; details: i.v. administration, FIG. 4
Excerpt: Evaluation of neuroprotection by inventive chimeric peptides after iv administration against focal cerebral ischaemia, in a transient MCAO model (see FIG. 4).
Transient ischemia in adult mice. Using male ICR-CD1 mice (6 weeks old; 18-37 g; Harlan), we provoked ischemia by introducing a filament from the common carotid artery into the internal carotid and advancing it into the arterial circle, thereby occluding the middle cerebral artery. We measured regional cerebral blood flow by laser Doppler flowmetry, with a probe fixed on the skull throughout the ischemia until 10 min after reperfusion. Rectal temperature was measured and maintained at 37° C. The mice were killed 48 h after reperfusion. Serial cryostat sections 20 μm thick were traced using a computer-microscope system equipped with the Neurolucida program (MicroBrightField) and the volumes of the ischemic area and of the whole brain were calculated (blinded) with the Neuroexplorer program. XG−102 0.3=0.3 mg/kg,XG−102 1=1 mg/kg, XG−102 5=5 mg/kg
The infarct volume sizes (mm^3) after bolus iv administration of placebo and XG-102 0.3, […] 6 hours after reperfusion (30 minutes clamp) in an adult mice model were as follows.

[2] = tested on: recombinant JNK1, JNK2, or JNK3 kinases; assay: Solid phase kinase assay, phosphorylation of c-Jun, ATF2 and Elk1 by recombinant JNKs; assay type: biochemical; details: GST-Jun (aa 1-73), 0-250 μM dosage study
Procedure: The effects of the peptides on JNKs-mediated phosphorylation of their target transcription factors were investigated in vitro. Recombinant and non activated JNK1, JNK2 and JNK3 were produced using a TRANSCRIPTION AND TRANSLATION rabbit reticulocyte lysate kit (Promega) and used in solid phase kinase assays with c-Jun, ATF2 and Elk1, either alone or fused to glutathione-S-transferase (GST), as substrates. Dose response studies were performed wherein inventive L-TAT or L-TAT-IB1(s) peptides (0-25 μM) were mixed with the recombinant JNK1, JNK2, or JNK3 kinases in reaction buffer (20 mM Tris-acetate, 1 mM EGTA, 10 mM p-nitrophenyl-phosphate (pNPP), 5 mM sodium pyrophosphate, 10 mM p-glycerophosphate, 1 mM dithiothreitol) for 20 minutes. The kinase reactions were then initiated by the addition of 10 mM MgCl2 and 5 pCi […] and 1 μg of either GST-Jun (aa 1-89), GST-AFT2 (aa 1-96) or GST-ELK1 (aa 307-428). GST-fusion proteins were purchased from Stratagene (La Jolla, Calif.).
Ten μL of glutathione-agarose beads were also added to the mixture. Reaction products were then separated by SDS-PAGE on a denaturing 10% polyacrylamide gel. Gels were dried and subsequently exposed to X-ray films (Kodak). […] The ability of D-TAT, inventive D-TAT-IB1(s) and inventive L-TAT-IB1(s) peptides (0-250 μM dosage study) to inhibit GST-Jun (aa 1-73) phosphorylation by recombinant JNK1, JNK2, and JNKS by were analyzed as described above. Overall, D-TAT-IB1(s) peptide decreased JNK-mediated phosphorylation of c-Jun, but at levels approximately 10-20 fold less efficiently than L-TAT-IB1(s).

βTC-3 cells = assay: IL-1β induced pancreatic β-cell death, peptide treatment, propidium iodide / Hoechst 33342 staining; assay type: cell-based; details: one single addition 1 μM, IL-1β 10 ng/ml every two days, 15 days
Procedure: We investigated the effects of the inventive L-TAT-IB(s) peptides on the promotion of β-cell apoptosis elicited by IL-1. βTC-3 cell cultures were incubated for 30 minutes with 1 μM of inventive L-TAT-IB1(s) peptides followed by 10 ng/mL of IL-1. A second addition of peptide (1 μM) was performed 24 hours later. Apoptotic cells were counted after two days of incubation with IL-1 β using propidium iodide (red stained cell are dead cells) and Hoechst 33342 (blue stained cell are cells with intact plasma membrane) nuclear staining.
Long term inhibition of IL-1 induced cells death was examined by treating βTC-3 cells as described above, except that incubation of the cells with the peptides and IL-1 β was sustained for 12 days. Additional peptides (1 μM) were added each day and additional IL-1 β (10 ng/mL) was added every 2 days. […] Taken together, these experiments provide evidence that inventive TAT-IB(s) peptides are biologically active molecules able to prevent the effects of JNK signaling on cell fate.
Inhibition of IL-1 β induced pancreatic β-cell death by the inventive D-TAT-IB1(s) peptide was analyzed. βTC-3 cells were incubated as described above for 30 minutes with one single addition of the indicated peptides (1, μM), then IL-1 (10 ng/ml) was added.
Apoptotic cells were then counted after two days of incubation with IL-1 β by use of Propidium Iodide and Hoechst 33342 nuclear staining. A minimum of 1,000 cells were counted for each experiment. Standard Error of the Means (SEM) are indicated, n=5.
Long term inhibition of IL-1P induced cell-death by the D-TAT-IB1 peptide was also analyzed. βTC-3 cells were incubated as above for 30 minutes with one single addition of the indicated peptides (1 μM), then IL-1 β (10 ng/ml) was added, followed by addition of the cytokine every two days. Apoptotic cells were then counted after 15 days of incubation with IL-1 by use of propidium iodide and Hoechst 33342 nuclear staining. […] A minimum of 1.000 cells were counted for each experiment.

[3] = Focal cerebral ischemia, permanent MCAO model, lesion volume; assay type: in vivo, 12-days-old rats
Excerpt: Focal cerebral ischemia was induced in 12-days-old rats. Pups were anesthetized in an induction chamber with 2% isoflurane and during the operation anaesthesia was maintained using a mask under 2% isoflurane. MCAO was induced by electrocoagulating a main branch of the middle cerebral artery (MCA). Rats were placed on the right side, and an oblique dermal incision was made between the ear and eye. After excision of the temporal muscle, the cranial bone was removed from the frontal suture to a level below the zygomatic arch. […] The cranial skin incision was then closed. Rat pups were then placed in an incubator maintained at 37° C. until they awoke, and were then transferred to their mother.
6 hours later an inventive chimeric D-TAT-IB1(s) peptide according to SEQ ID NO: 11 was injected intraperitoneally. 24 hours after the coagulation, the rats were anesthetized with chloral hydrate and perfused through the ascending aorta with 4% paraformaldehyde in PBS. Brains were then removed and kept for 2 hours in the same fixative solution, and placed in a gradient of 30% sucrose in PBS for about 15 hours at 4° C. Brains were frozen in isopentane (−40° C.) and stored at −20° C. Coronal cryostat sections of 50 µm were collected on glass slides. The sections were stained with cresyl violet. Each tenth section was analyzed and the total volume of the lesion was calculated using the Neuroleucida programme. In the control group A, the mean lesion volume was 21.47 mm^3. […] A significant statistic difference is observed between group A and groups C, E and F (one-tailed t-test, p=0.030, p=0.002, p=0.001 respectively).

- efficiency in decreasing JNK-mediated phosphorylation of c-Jun, fold less efficient than L-TAT-IB1(s) [2]: 10-20 fold
Compound: CC(C)C[C@@H](NC(=O)[C@@H](Cc1ccccc1)NC(=O)[C@H]1CCCN1C(=O)[C@@H](CCC(N)=O)NC(=O)[C@H](NC(=O)[C@H]1CCCN1C(=O)[C@@H](CCCNC(=N)N)NC(=O)[C@@H](CO)NC(=O)[C@@H](CCC(N)=O)NC(=O)[C@H](N)CC(=O)O)C(C)C)C(=O)N[C@H](CC(N)=O)C(=O)N[C@H](CC(C)C)C(=O)N[C@@H](C(=O)N[C@@H](C(=O)N1CCC[C@@H]1C(=O)N[C@H](CCCNC(=N)N)C(=O)N[C@H](CCCCN)C(=O)N1CCC[C@@H]1C(=O)N[C@H](CCCNC(=N)N)C(=O)N1CCC[C@@H]1C(=O)N1CCC[C@@H]1C(=O)N[C@H](CCCNC(=N)N)C(=O)N[C@H](CCCNC(=N)N)C(=O)N[C@H](CCCNC(=N)N)C(=O)N[C@H](CCC(N)=O)C(=O)N[C@H](CCCNC(=N)N)C(=O)N[C@H](CCCNC(=N)N)C(=O)N[C@H](CCCCN)C(=O)N[C@H](CCCCN)C(=O)N[C@H](CCCNC(=N)N)C(=O)NCC(=O)O)[C@H](C)O)[C@H](C)O [D-TAT-IB1(s)] (H-[dD][dQ][dS][dR][dP][dV][dQ][dP][dF][dL][dN][dL][dT][dT][dP][dR][dK][dP][dR][dP][dP][dR][dR][dR][dQ][dR][dR][dK][dK][dR]G-OH)
- neuroprotection (infarct volumes) [1]: provides efficient neuroprotection
- long term inhibition of IL-1β induced cell-death (βTC-3 cells): able to confer long term (15 day) protection
- mean lesion volume of all treated groups versus control group ([3]; control group mean 21.47 mm^3): lower mean than the control group
- cerebral protection (lesion volume) compared to saline group ([3]; doses 1 mg/kg, 0.003 mg/kg and 0.0003): not large enough to reach a significant difference
- dose of best protection ([3]; i.p. 6 hours after MCAO): 0.03 mg/kg
- cerebral protection (lesion volume) ([3]; i.p. 6 hours after MCAO, doses 11 mg/kg, 3 mg/kg, 0.3 mg/kg and 0.03 mg/kg, 24 hours after coagulation): contributes to a cerebral protection
